# Measurements reported in US20210278408A1, “METHODS OF TREATMENT OF CANCER WITH SUBSTITUTED PYRROLE AND PYRAZOLE COMPOUNDS AND DIAGNOSIS OF CANCERS SUSCEPTIBLE TO TREATMENT WITH SUBSTITUTED PYRROLE AND PYRAZOLE COMPOUNDS” (Bantam Pharmaceutical, LLC, priority 2018, published 2021).
# Tested on: 406 cancer cell lines, 73 blood tumor cell lines and 333 solid tumor cell lines
# Experiment: OmniScreen drug efficacy on cancer cell lines, fitted area under curve (AUC) of dose-response
# Type: cell-based
# Design: AUCs: unit not given beside the values
# Procedure: Predictive biomarkers for genes indicating responsiveness to a therapeutic compound can be determined using a cell-based screening technique, such as that offered under the name OmniScreen™ (Crown Biosciences).
# In one experimental study, predictive biomarkers were determined for Compound A197 efficacy on 406 cancer cell lines, 73 blood tumor cell lines and 333 solid tumor cell lines. Genomic data for the cell lines was downloaded from the Cancer Cell Line Encyclopedia Project (CCLE) website. Driver mutations were predicted on the Cancer Genome Interpreter Database; only driver mutations were used in the mutation related analysis.
# Dose-response curves were fitted by the 4-parameter model:
# in which top and bottom are the two asymptotes of the sigmoidal curve, EC50 is the relative IC50, and concentration x is in log−10 scale. To accommodate experimental errors, Bottom was allowed to go down to −20%, and Top was allowed to go up to 120%. The fitting error of a model is measured by
# σECS0 is the standard error of EC50. In general, such fitting error should be less than 40% for a model to be considered acceptable. The fitted area under curve (AUC) is calculated by
# where a=log(3, 10) and b=log(30000,10).
compound,measurement,setting,value
"Cc1nn(-c2nc(-c3ccc(C(F)(F)F)cc3)c(SC(C)C)s2)c(C(=O)O)c1-c1cccc(F)c1 [Compound A197, 4-(3-fluorophenyl)-1-(5-(isopropylthio)-4-(4-(trifluoromethyl)phenyl)thiazol-2-yl)-3-methyl-1H-pyrazole-5-carboxylic acid]",AUCs,"22Rv1, Prostate",2.52
same,AUCs,"8505C, H&N/Thyroid",3.78
same,AUCs,"A253, Submaxillary gland",3.32
same,AUCs,"A875, Skin",3.84
same,AUCs,"A2058, Skin",3.64
same,AUCs,"A2780, Ovary",2.43
same,AUCs,"A2780cis, Ovary",2.68
same,IC50,"A2780cis, Ovary",541 nM
same,AUCs,"A-172, Brain&Nerves",3.29
same,AUCs,"A-204, Muscle",3.66
same,AUCs,"A-375, Skin",3.42
same,AUCs,"A-427, Lung",3.59
same,AUCs,"A-431, Skin",2.96
same,AUCs,"A-673, Muscle",2.78
same,AUCs,"AGS, Stomach/Gastric",3.63
same,IC50,"AGS, Stomach/Gastric",205000 nM
same,AUCs,"AN3 CA, Uterus",3.88
same,AUCs,"ARH-77, Blood",3.22
same,AUCs,"ASH-3, H&N/Thyroid",3.41
same,responsiveness of blood tumor cell lines versus solid tumor cell lines,"AUC, Welch's t-test P-value 2.3e-16",more likely to be responsive
same,AUCs,"AsPC-1, Pancreas",3.59
same,AUCs,"BT-20, Breast",3.2
same,AUCs,"BT-483, Breast",3.43
same,AUCs,"BxPC-3, Pancreas",2.97
same,AUCs,"C4-2, Prostate",3.61
same,AUCs,"C666-1, Nose",3.15
same,AUCs,"C-33 A, Uterus",3.7
same,AUCs,"CAL-27, Tongue",3.17
same,AUCs,"CFPAC-1, Pancreas",3.56
same,AUCs,"COV644, Ovary",3.69
same,AUCs,"Ca Ski, Uterus",4.35
same,AUCs,"Caki-2, Kidney",3.53
same,AUCs,"Calu-6, Lung",3.21
same,AUCs,"Caov-3, Ovary",3.65
same,AUCs,"Capan-1, Pancreas",3.82
same,AUCs,"Capan-2, Pancreas",3.28
same,AUCs,"CoC1, Ovary",2.95
same,AUCs,"CoC1/DDP, Ovary",3.33
same,AUCs,"D283 Med, Brain&Nerves",3.28
same,AUCs,"DMS 79, Lung",4.09
same,AUCs,"DMS 114, Lung",3.56
same,AUCs,"DU 145, Prostate",2.99
same,AUCs,"DV-90, Lung",3.1
same,AUCs,"Daoy, Brain&Nerves",3.14
same,AUCs,"Detroit 562, Pharynx",3.54
same,AUCs,"DoTc2 4510, Uterus/Cervix",3.9
same,AUCs,"EBC-1, Lung",3.47
same,AUCs,"ES-2, Ovary",3.75
same,IC50,"ES-2, Ovary",70800 nM
same,AUCs,"FaDu, Pharynx",2.9
same,AUCs,"GTL-16, Stomach/Gastric",3.18
same,AUCs,"HCC 94, Uterus",2.92
same,IC50,"HCC 94, Uterus",806 nM
same,AUCs,"HCC1187, Breast",3.63
same,AUCs,"HCC1500, Breast",3.27
same,AUCs,"HCC1806, Breast",3.39
same,AUCs,"HCC1937, Breast",3.36
same,AUCs,"HCC1954, Breast",3.44
same,AUCs,"HCC2218, Breast",3.48
same,AUCs,"HCC2935, Lung",3.49
same,AUCs,"HCCC-9810, Liver",3.64
same,AUCs,"HCCLM3, Liver",3.87
same,AUCs,"HEC-1-A, Uterus",3.28
same,AUCs,"HEC-1-B, Uterus",2.85
same,AUCs,"HGC-27, Stomach/Gastric",2.39
same,AUCs,"HLE, Liver",3.3
same,AUCs,"HLF, Liver",3.43
same,AUCs,"HPAC, Pancreas",2.98
same,AUCs,"HT-3, Uterus/Cervix",3.91
same,IC50,"HT-3, Uterus/Cervix",30100 nM
same,AUCs,"HT-55, Large intestine/Colorectum",4
same,AUCs,"HT-1080, Soft tissue",3.07
same,AUCs,"HT-1376, Bladder",4.11
same,AUCs,"HUH-1, Liver",3.81
same,AUCs,"HeLa 229, Cervix",3.37
same,AUCs,"Hep3B, Liver",3.5
same,IC50,"Homo sapiens, 22Rv1, 22Rv1, Prostate",1090 nM
same,IC50,"Homo sapiens, A204, A-204, Muscle",184000 nM
same,IC50,"Homo sapiens, A673, A-673, Muscle",701 nM
same,IC50,"Homo sapiens, A2780, A2780, Ovary",863 nM
same,IC50,"Homo sapiens, A-375, A-375, Skin",28100 nM
same,IC50,"Homo sapiens, A-431, A-431, Skin",1110 nM
same,IC50,"Homo sapiens, AN3-CA, AN3 CA, Uterus",45600 nM
same,IC50,"Homo sapiens, BXPC-3, BxPC-3, Pancreas",351 nM
same,IC50,"Homo sapiens, C6661, C666-1, Nose",24600 nM
same,IC50,"Homo sapiens, CAL-27, CAL-27, Tongue",3420 nM
same,IC50,"Homo sapiens, Ca-Ski, Ca Ski, Uterus",41300 nM
same,IC50,"Homo sapiens, DMS-79, DMS 79, Lung",420000 nM
same,IC50,"Homo sapiens, DU-145, DU 145, Prostate",835 nM
same,IC50,"Homo sapiens, FaDu, Pharynx",341 nM
same,IC50,"Homo sapiens, HEC-1B, HEC-1-B, Uterus",438 nM
same,IC50,"Homo sapiens, HGC-27, HGC-27, Stomach/Gastric",513 nM
same,IC50,"Homo sapiens, HPAC, Pancreas",467 nM
same,IC50,"Homo sapiens, HT-1080, HT-1080, Soft tissue",990 nM
same,IC50,"Homo sapiens, HuTu80, Hutu 80, Small intestine/Duodenum",880 nM
same,IC50,"Homo sapiens, Ishikawa, Uterus",297 nM
same,IC50,"Homo sapiens, JEG-3, JEG-3, Placenta",993 nM
same,IC50,"Homo sapiens, LNCaP-Clone-FGC, LNCaP clone FGC, Prostate",172 nM
same,IC50,"Homo sapiens, ME-180, ME-180, Uterus",562 nM
same,IC50,"Homo sapiens, MES-SA, Uterus",480 nM
same,IC50,"Homo sapiens, MES-SA/Dx5, MES-SA/DX5, Uterus",342 nM
same,IC50,"Homo sapiens, MIA PaCa-2, MIA PaCa-2, Pancreas",2910 nM
same,IC50,"Homo sapiens, MKN-1, MKN1, Stomach/Gastric",5360 nM
same,IC50,"Homo sapiens, NCI-H146, NCI-H146, Lung",42600 nM
same,IC50,"Homo sapiens, NCI-H187, NCI-H187, Lung",8360 nM
same,IC50,"Homo sapiens, NCI-H226, NCI-H226, Lung",2230 nM
same,IC50,"Homo sapiens, NCI-H446, NCI-H446, Lung",30500 nM
same,IC50,"Homo sapiens, NCI-H526, NCI-H526, Lung",212000 nM
same,IC50,"Homo sapiens, NCI-H1648, NCI-H1648, Lung",72900 nM
same,IC50,"Homo sapiens, NCI-H2452, NCI-H2452, Lung",70800 nM
same,IC50,"Homo sapiens, NUGC-3, NUGC-3, Stomach/Gastric",26500 nM
same,IC50,"Homo sapiens, NUGC-4, NUGC-4, Stomach/Gastric",1350 nM
same,IC50,"Homo sapiens, OVCAR-8, OVCAR-8, Ovary",1020 nM
same,IC50,"Homo sapiens, PANC-1, PANC-1, Pancreas",2610 nM
same,IC50,"Homo sapiens, RL95-2, RL95-2, Uterus",416 nM
same,IC50,"Homo sapiens, RPMI-2650, RPMI-2650, Nose",843 nM
same,IC50,"Homo sapiens, SCC-4, SCC-4, Tongue",833000 nM
same,IC50,"Homo sapiens, SCC-9, SCC-9, Tongue",26100 nM
same,IC50,"Homo sapiens, SK-MEL-5, SK-MEL-5, Skin",75100 nM
same,IC50,"Homo sapiens, SK-MEL-28, SK-MEL-28, Skin",105000 nM
same,IC50,"Homo sapiens, SK-OV-3, SK-OV-3, Ovary",84900 nM
same,IC50,"Homo sapiens, SNU1, SNU-1, Stomach/Gastric",12600 nM
same,IC50,"Homo sapiens, SNU-5, SNU-5, Stomach/Gastric",1950 nM
same,IC50,"Homo sapiens, SW626, SW626, Ovary",415000 nM
same,IC50,"Homo sapiens, SW756, SW756, Ovary",37900 nM
same,IC50,"Homo sapiens, SW982, SW982, Soft tissue",66000 nM
same,IC50,"Homo sapiens, WM 266-4, WM-266-4, Skin",32400 nM
same,AUCs,"HuCCT1, Liver",3.24
same,AUCs,"Hutu 80, Small intestine/Duodenum",2.69
same,AUCs,"IM95m, Stomach/Gastric",2.9
same,IC50,"IM95m, Stomach/Gastric",601 nM
same,AUCs,"Ishikawa, Uterus",2.44
same,AUCs,"JAR, Placenta",2.57
same,IC50,"JAR, Placenta",673 nM
same,AUCs,"JEG-3, Placenta",3.2
same,AUCs,"JHH-5, Liver",3.56
same,AUCs,"JIMT-1, Breast",3.62
same,AUCs,"KATO III, Stomach/Gastric",3.2
